pEC50: −log10 of the molar value. Values after ≈ are worked out from the molar mass of the structure shown.
Assays:
[1] = Percentage unbound in rat plasma; type: ADME, cell-free
[2] = target: T1, Nuclear receptor ROR-gamma (Mus musculus, UniProt P51450); assay: Inverse agonist activity at RORgamma in C57BL/6 mouse splenocytes assessed as reduction of IL-17 production after 2 days by ELISA; type: cell-based
T1 sequence (P51450 whole entry): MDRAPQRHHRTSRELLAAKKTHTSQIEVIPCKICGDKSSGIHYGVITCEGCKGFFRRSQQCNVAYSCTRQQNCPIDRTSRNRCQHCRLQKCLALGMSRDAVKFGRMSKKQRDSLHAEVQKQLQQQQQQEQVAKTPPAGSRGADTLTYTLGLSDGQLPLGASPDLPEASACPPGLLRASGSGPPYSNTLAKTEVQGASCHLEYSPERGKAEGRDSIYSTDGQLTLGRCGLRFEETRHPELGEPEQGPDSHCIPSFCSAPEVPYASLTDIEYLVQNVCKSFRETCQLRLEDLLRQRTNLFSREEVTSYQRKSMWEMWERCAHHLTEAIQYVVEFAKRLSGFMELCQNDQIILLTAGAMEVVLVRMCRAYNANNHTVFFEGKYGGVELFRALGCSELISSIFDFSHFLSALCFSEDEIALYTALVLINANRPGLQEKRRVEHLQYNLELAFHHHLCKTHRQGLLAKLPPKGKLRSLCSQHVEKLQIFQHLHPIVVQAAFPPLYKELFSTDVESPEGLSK

[3] = Kinetic aqueous solubility of the compound; type: physicochemical; settings: buffer; read-out: Kinetic_solubility
[4] = Percentage unbound in human plasma; type: ADME, cell-free
[5] = target: T2, Nuclear receptor subfamily 1 group I member 2 (Homo sapiens, UniProt O75469); assay: Activation of PXR (unknown origin)
T2 sequence (O75469 whole entry): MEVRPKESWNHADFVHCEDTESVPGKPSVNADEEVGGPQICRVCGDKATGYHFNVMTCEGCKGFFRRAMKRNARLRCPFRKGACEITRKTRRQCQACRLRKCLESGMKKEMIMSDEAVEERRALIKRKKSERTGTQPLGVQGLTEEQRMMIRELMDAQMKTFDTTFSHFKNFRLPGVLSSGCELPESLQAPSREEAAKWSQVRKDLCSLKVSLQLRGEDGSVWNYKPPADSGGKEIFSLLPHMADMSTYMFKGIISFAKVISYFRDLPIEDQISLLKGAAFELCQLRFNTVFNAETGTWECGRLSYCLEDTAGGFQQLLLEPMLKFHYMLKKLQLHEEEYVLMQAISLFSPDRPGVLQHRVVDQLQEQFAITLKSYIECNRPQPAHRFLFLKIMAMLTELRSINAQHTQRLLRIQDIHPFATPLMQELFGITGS

[6] = target: T3, Nuclear receptor ROR-alpha (Homo sapiens, UniProt P35398); assay: Inverse agonist activity at RORalpha (unknown origin)
T3 sequence (P35398 whole entry): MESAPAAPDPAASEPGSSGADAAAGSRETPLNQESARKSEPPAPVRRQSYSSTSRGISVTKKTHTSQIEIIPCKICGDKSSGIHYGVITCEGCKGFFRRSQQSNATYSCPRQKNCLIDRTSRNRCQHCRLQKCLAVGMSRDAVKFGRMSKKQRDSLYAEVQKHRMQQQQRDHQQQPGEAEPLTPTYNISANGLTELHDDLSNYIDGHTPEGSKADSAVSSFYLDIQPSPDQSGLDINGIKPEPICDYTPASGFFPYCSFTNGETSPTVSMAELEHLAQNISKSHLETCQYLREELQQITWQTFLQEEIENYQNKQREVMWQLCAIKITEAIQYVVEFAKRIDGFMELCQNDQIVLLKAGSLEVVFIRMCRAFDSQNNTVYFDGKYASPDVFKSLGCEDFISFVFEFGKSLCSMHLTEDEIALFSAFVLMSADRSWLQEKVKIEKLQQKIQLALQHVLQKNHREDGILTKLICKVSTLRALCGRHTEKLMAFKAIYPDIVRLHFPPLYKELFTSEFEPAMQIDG

[7] = target: T4, Nuclear receptor ROR-beta (Homo sapiens, UniProt Q92753); assay: Inverse agonist activity at RORbeta (unknown origin)
T4 sequence (Q92753 whole entry): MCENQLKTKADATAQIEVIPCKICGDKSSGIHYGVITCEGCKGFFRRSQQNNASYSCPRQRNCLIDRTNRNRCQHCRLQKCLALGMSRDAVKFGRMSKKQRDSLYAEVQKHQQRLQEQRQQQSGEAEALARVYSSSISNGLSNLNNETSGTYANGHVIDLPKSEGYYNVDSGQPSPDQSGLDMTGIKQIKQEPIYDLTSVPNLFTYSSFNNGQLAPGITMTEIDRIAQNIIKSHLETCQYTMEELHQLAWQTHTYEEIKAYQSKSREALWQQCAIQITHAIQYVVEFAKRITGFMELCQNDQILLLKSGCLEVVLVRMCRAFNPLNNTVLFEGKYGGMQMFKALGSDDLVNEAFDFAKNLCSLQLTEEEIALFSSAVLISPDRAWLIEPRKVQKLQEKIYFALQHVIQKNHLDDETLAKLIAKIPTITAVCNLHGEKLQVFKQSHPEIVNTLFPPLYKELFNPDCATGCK

| fraction unbound [1] | pEC50 [2] | solubility kinetic [3] [µg/mL] | fraction unbound [4] | pEC50 [5] | pEC50 [6] | pEC50 [7] | Compound |
| --- | --- | --- | --- | --- | --- | --- | --- |
| 0.031 | 5.70 | 32 (≈ 62 µM) | 0.059 | – | – | – | [2H]C([2H])([2H])N(C(=O)c1c(F)cccc1Cl)c1ccc(-c2cc(C(N)=O)nn2C(C)C)cc1OCC(F)(F)F |
| 0.006 | 6.09 | < 0.1 | 0.009 | – | – | – | [2H]C([2H])([2H])N(C(=O)c1c(F)cccc1Cl)c1ccc(-c2cnn(C)c2C(C)C)cc1OCC(F)(F)F |
| – | – | 27 (≈ 50.9 µM) | – | – | – | – | [2H]C([2H])([2H])N(C(=O)c1c(F)cccc1Cl)c1ccc(-c2cc(NC(C)=O)nn2C(C)C)cc1OCC(F)(F)F |
| – | 5.51 | – | – | < 5.00 | 5.92 | 6.05 | [2H]C([2H])([2H])N(C(=O)c1c(F)cccc1Cl)c1ccc(-c2cc(NC(C)=O)nn2C(C)C)cc1OCC1CCC1 |
| 0.002 | – | – | 0.003 | – | – | – | [2H]C([2H])([2H])N(C(=O)c1c(F)cccc1Cl)c1ccc(-c2cc(NC(C)=O)nn2C(C)C)cc1OCC(C)C |
| 0.009 | – | 12 (≈ 24 µM) | 0.017 | 6.10 | 5.85 | 6.00 | [2H]C([2H])([2H])N(C(=O)c1c(F)cccc1Cl)c1ccc(-c2cc(NC(C)=O)nn2C(C)C)cc1N1CCCC1 |
| 0.001 | 7.96 | 1.3 (≈ 2.52 µM) | 0.004 | < 5.00 | 5.96 | 6.10 | [2H]C([2H])([2H])N(C(=O)c1c(F)cccc1Cl)c1ccc(-c2cc(NC(C)=O)nn2C(C)C)cc1N1CCCCC1 |
| 0.004 | – | – | 0.004 | < 5.00 | 5.68 | 5.96 | [2H]C([2H])([2H])N(C(=O)c1c(F)cccc1Cl)c1ccc(-c2cc(NC(C)=O)nn2C(C)C)cc1-c1ccccc1 |
| 0.002 | 6.96 | – | 0.009 | – | 5.72 | 5.77 | CC(=O)Nc1cc(-c2ccc(N(C)C(=O)c3c(F)cccc3Cl)c(N3CC4CC4C3)c2)n(C(C)C)n1 (centres undefined) |
| 0.001 | 7.14 | 0.8 (≈ 1.51 µM) | 0.004 | 6.30 | 5.82 | 6.22 | [2H]C([2H])([2H])N(C(=O)c1c(Cl)cccc1Cl)c1ccc(-c2cc(NC(C)=O)nn2C(C)C)cc1N1CC2CC2C1 (centres undefined) |
| 0.002 | 6.45 | 17 (≈ 34.5 µM) | 0.011 | < 5.00 | 5.70 | 5.82 | [2H]C([2H])([2H])N(C(=O)c1c(C)cccc1F)c1ccc(-c2cc(NC(C)=O)nn2C(C)C)cc1N1CC2CC2C1 (centres undefined) |
| 0.022 | – | 48 (≈ 93.4 µM) | 0.056 | 5.89 | < 5.00 | 5.21 | [2H]C([2H])([2H])N(C(=O)c1c(F)cccc1Cl)c1ncc(-c2cc(NC(C)=O)nn2C(C)C)cc1N1CC2CC2C1 (centres undefined) |
| – | 7.48 | – | – | – | – | – | [2H]C([2H])([2H])N(C(=O)c1c(F)cccc1Cl)c1ccc(-c2cc(NC(=O)CC)nn2C(C)C)cc1N1CC2CC2C1 (centres undefined) |
| – | 7.06 | – | – | – | – | – | [2H]C([2H])([2H])N(C(=O)c1c(F)cccc1Cl)c1ccc(-c2cc(NC(=O)C3CC3)nn2C(C)C)cc1N1CC2CC2C1 (centres undefined) |
| – | 6.87 | – | – | – | – | – | [2H]C([2H])([2H])N(C(=O)c1c(F)cccc1Cl)c1ccc(-c2cc(NC(=O)[C@H]3C[C@@H](O)C3)nn2C(C)C)cc1N1CC2CC2C1 (some centres undefined) |
| – | 6.87 | – | – | – | – | – | [2H]C([2H])([2H])N(C(=O)c1c(F)cccc1Cl)c1ccc(-c2cc(NC(=O)[C@H]3C[C@H](O)C3)nn2C(C)C)cc1N1CC2CC2C1 (some centres undefined) |
| – | 6.92 | – | – | – | – | – | [2H]C([2H])([2H])N(C(=O)c1c(F)cccc1Cl)c1ccc(-c2cc(NC(=O)CO)nn2C(C)C)cc1N1CC2CC2C1 (centres undefined) |
| – | 6.45 | – | – | – | – | – | [2H]C([2H])([2H])N(C(=O)c1c(F)cccc1Cl)c1ccc(-c2cc(NC(=O)NC)nn2C(C)C)cc1N1CC2CC2C1 (centres undefined) |
| – | 6.83 | – | – | – | – | – | [2H]C([2H])([2H])N(C(=O)c1c(F)cccc1Cl)c1ccc(-c2cc(NC(=O)N3CC4(COC4)C3)nn2C(C)C)cc1N1CC2CC2C1 (centres undefined) |
| < 0.0005 | 7.22 | 0.1 (≈ 0.186 µM) | 0.002 | 6.30 | 5.89 | 5.89 | [2H]C([2H])([2H])N(C(=O)c1c(F)cccc1Cl)c1ccc(-c2cc(NC(C)=O)nn2C2CCCC2)cc1N1CC2CC2C1 (centres undefined) |
| 0.0004 | 6.70 | 0.5 (≈ 0.952 µM) | 0.003 | – | – | – | [2H]C([2H])([2H])N(C(=O)c1c(F)cccc1Cl)c1ccc(-c2cc(NC(C)=O)nn2C2CCC2)cc1N1CC2CC2C1 (centres undefined) |
| – | – | 0.8 (≈ 1.48 µM) | – | – | – | – | [2H]C([2H])([2H])N(C(=O)c1c(F)cccc1Cl)c1ccc(-c2cc(NC(C)=O)nn2CC(C)(C)C)cc1N1CC2CC2C1 (centres undefined) |
| 0.002 | 6.70 | 10.1 (≈ 19.2 µM) | 0.005 | 5.06 | 5.74 | 5.74 | [2H]C([2H])([2H])N(C(=O)c1c(F)cccc1Cl)c1ccc(-c2cc(NC(C)=O)nn2CC2CC2)cc1N1CC2CC2C1 (centres undefined) |
| – | – | 0.5 (≈ 0.928 µM) | – | 6.05 | 5.03 | 5.89 | [2H]C([2H])([2H])N(C(=O)c1c(F)cccc1Cl)c1ccc(-c2cc(NC(C)=O)nn2C(C)C2CC2)cc1N1CC2CC2C1 (centres undefined) |
| 0.002 | – | 0.3 (≈ 0.566 µM) | 0.003 | 6.40 | 5.66 | 6.10 | CC(=O)Nc1nc(C(C)C)c(-c2cnc(N(C)C(=O)c3c(F)cccc3Cl)c(N3CCCCC3)c2)s1 |
